We go through one compound from patent US20180206499A1, “METHOD OF IMPROVING PLANT HEALTH AND ROOTING OF PLANTS” (Bayer CropScience LP, priority 2017, published 2018).

Molecules are shown by their SMILES.

What all share (assay type): in vivo
In assay [1] the test system is Loblolly pine (P. taeda). The experiment in a line: Pinus taeda seed pot test, soil sprayed with indaziflam composition. The following applies: Esplanade 200SC soil spray; for root weight: untreated root approx. 0.06 grams; for shoot weight: untreated shoot approx. 0.19 grams. How it is done:
Loblolly pine (P. taeda) seeds were soaked in water for 24 hours and then placed in cold storage in a punctured bag for four weeks.
(§1) 20 seeds were placed in pots on soil surface and topdressed with one cup of sandy loam soil, about ⅛″ to ¼″ deep. The pots were irrigated and allowed to settle for 24 hours.
(§2) The soil was sprayed with a commercially available composition comprising indaziflam (commercial name Esplanade 200SC) using a single nozzle with a compressed CO2 backpack set at 32 psi for 25 gallons per acre. Overhead irrigation was set for twice daily.

The test system of assay [2] is Virginia pine (P. virginiana). The experiment in a line: Pinus virginiana seed pot test, soil sprayed with indaziflam composition. As to conditions: Esplanade 200SC soil spray; for root weight: untreated root approx. 0.05 grams; for shoot weight: untreated shoot approx. 0.11 grams. How it is done:
Virginia pine (P. virginiana) seeds were soaked in water for 24 hours and then placed in cold storage in a punctured bag for four weeks.
as §1, §2

Assay [3] deals with Shortleaf pine (P. echinata). The experiment in a line: Pinus echinata seed pot test, soil sprayed with indaziflam composition. As to conditions: soil spray; for root weight: untreated root approx. 0.05 grams; for shoot weight: untreated shoot approx. 0.10 grams. How it is done: Shortleaf pine (P. echinata) seeds were soaked in water for 24 hours and then placed in cold storage in a punctured bag for four weeks.
as §1
The soil was sprayed with a commercially available composition comprising indaziflam (commercial name […]) using a single nozzle with a compressed CO2 backpack set at 32 psi for 25 gallons per acre. Overhead irrigation was set for twice daily.

With `Cc1ccc2c(c1)[C@H](Nc1nc(N)nc(C(C)F)n1)[C@@H](C)C2` (mixture of isomers) [indaziflam, N2[(1R,2S)-2,3-dihydro-2,6-dimethyl-1H-inden-1-yl]-6-[(1RS)-1-fluoroethyl]-1,3,5-triazine-2,4-diamine], the root weight result is “approximately 0.15 grams” in assay [1] (50 g indaziflam per hectare); “approximately 0.25 grams” in assay [1] (71.4 g indaziflam per hectare); “approximately 0.14 grams” in assay [1] (100 g indaziflam per hectare); “approximately 0.14 grams” in assay [2] (50 g indaziflam per hectare); “approximately 0.27 grams” in assay [2] (71.4 g indaziflam per hectare); “approximately 0.22 grams” in assay [2] (100 g indaziflam per hectare). The root weight entry in assay [3] (50 g indaziflam per hectare) is on record as “approximately 0.13 grams”; in assay [3] (71.4 g indaziflam per hectare), “approximately 0.27 grams”; in assay [3] (100 g indaziflam per hectare) it was “approximately 0.22 grams”. In addition, the shoot weight result in assay [1] (50 g indaziflam per hectare) was “approximately 0.30 grams”; in assay [1] (71.4 g indaziflam per hectare), “approximately 0.50 grams”; in assay [1] (100 g indaziflam per hectare), “approximately 0.22 grams”; in assay [2] (50 g indaziflam per hectare), “approximately 0.23 grams”; in assay [2] (71.4 g indaziflam per hectare) it was “approximately 0.41 grams”; in assay [3] (50 g indaziflam per hectare), “approximately 0.34 grams”. The shoot weight result in assay [3] (71.4 g indaziflam per hectare) is recorded as “approximately 0.40 grams”; in assay [3] (100 g indaziflam per hectare) it was “approximately 0.24 grams”.
